Among the data in PMC8998618, “A Pharmacokinetic and Metabolism Study of the TRPC6 Inhibitor SH045 in Mice by LC-MS/MS” (International Journal of Molecular Sciences, 2022) are vmax and Km values, retold here.

Structures are written as SMILES.

The nature of this series: NADPH-dependent microsomal conversion, Michaelis-Menten kinetics (HLM). The class given is in vitro ADME, human. The settings on record: HLM 0.5 mg/mL protein, SH045 0.5 to 100 µM, Lineweaver-Burk. The method, then:
For determination of vmax and Michaelis-Menten constant Km of the NADPH-dependent microsomal depletion of SH045, incubations in MLM and HLM were performed. Testosterone instead of SH045 was used as positive control (Supplementary Materials SM6).
Negative controls were obtained by omission of respective components. The overall velocity (v) of degradation was calculated from altered SH045 concentration (∆c) obtained from reduction peak area ratio of SH045 as: v = ∆c/incubation time × concentration of enzyme (nmol/min × mg). Mean maximum rate vmax and Km were calculated using Lineweaver-Burk transformation. […]
The tissue binding of SH045 was analyzed exemplarily in lung, liver and kidney homogenate using ultrafiltration [5]. […] 20 µL of the mixture and the filtrate were analyzed for SH045. […]
Testosterone (10 µM in ACN/DPBS 2/3, v/v) instead of SH045 was used as positive control and analyzed by an appropriate HPLC method with UV detection.
Negative controls contained either no NADPH, no MLM or HLM or none of them. The overall velocity (v) of degradation was calculated from altered SH045 concentration (∆c) obtained from reduction peak area ratio of SH045 as: v = ∆c / incubation time × concentration of enzyme × volume (nmol/ min × mg). Mean maximum rate vmax and Michaelis-Menten constant Km were calculated using Lineweaver-Burk transformation. […]

Usually Km stands for the concentration of substrate that gives half-maximal velocity. For the compound `C=C[C@@](C)(O)CC[C@H]1C(=C)C[C@H](OC(=O)NC)[C@H]2C(C)(C)CCC[C@]12C` [SH045, (1S,4S,4aR,8aS)-4-((S)-3-Hydroxy-3-methylpent-4-en-1-yl)-4a,8,8-trimethyl-3-methylenedecahydronaphthalen-1-yl methylcarbamate], the vmax was found to be 0.8 ± 0.1 nmol/min/mg. In addition, under “human, human liver microsomes”, the Km at 10 min came out at 4.1 ± 0.8 µM.
